Data on two compounds can be found in patent US20210102239A1, “METHOD FOR DETERMINING BACTERIAL NUMBER IN SPECIMEN” (MITSUI CHEMICALS, INC., priority 2017, published 2021).

In test [1] the test system is K. oxytoca. Put plainly: drug sensitivity test of the pathogenic bacterium from blood culture. The class given is cell-based, Klebsiella oxytoca. As to conditions: Case 2, isolate from blood specimen sampled before antibiotic treatment. How it is done: (§1) According to Step 1 to Step 4 of Example 1, a pathogenic bacterium rapid quantification test using sepsis patient's specimens (EDTA blood collection tube, 2 mL) was carried out. […] Blood was sampled before treatment with an antibiotic (pretreatment), and 24 hours (after 24 hrs.) and 72 hours (after 72 hrs.) after administration of the antibiotic. At the three points, a pathogenic bacterium rapid quantification test was carried out together with measurement of body temperature, white blood cell count, CRP, presepsin and IL-6. Furthermore, a blood specimen sampled before the antibiotic treatment was subjected to a blood culture method to identify a pathogenic bacterium and subjected to a drug sensitivity test. General information about individual cases is as follows.

Test [2] relates to S. pneumoniae. The description is as above. In kind it is cell-based, Streptococcus pneumoniae. To be noted: Case 2, isolate from blood specimen sampled before antibiotic treatment. How it is done:
as §1

The test system of test [3] is Klebsiella oxytoca, Haemophilus influenzae, Streptococcus pneumoniae. In words: Case 2: pathogen count (nested PCR) and biomarkers in blood before/after antibiotic treatment. As to conditions: for BT (body temperature): pretreatment 39.2; for WBC: pretreatment 108.8; for CRP: pretreatment 150.3; for Presepsin: pretreatment 5379; for IL-6: pretreatment 122000; for Pathogen (Ave): pretreatment 175270. The class given is in vivo, human (sepsis patient). How it is done: (§2) First, bacterial cells were collected from a blood specimen by centrifuging the whole blood at a low rate of 100×g for 5 minutes to separate blood cells, centrifuging the resultant supernatant (containing buffy coat) at a high rate of 20,000×g for 10 minutes to obtain a pellet.
(§3) Using DNA of a pathogenic bacterium taken from the blood specimen according to the method of Step 1 as a template, nested PCR (1st PCR: 30 cycle→100 double dilution→2nd PCR: 30 to 35 cycles) is carried out. The bacterial cells in patient specimens vary in a wide range from very small to large number. Since it is difficult to accurately determine the bacterial number in a single cycle of PCR, nested PCR methods are used in combination.
(§4) Subsequently, using pathogenic bacterium DNA of Step 1 as a template, nested PCR was carried out together with a quantification control in the conditions described in Step 2. In the 1st PCR and 2nd PCR for quantification, the following bacterial universal primer (primer for detecting almost all bacteria) was used. The target region of the bacterial universal primer is a bacterial conserved region (base sequence region common in almost all bacteria) of a 16S ribosomal RNA gene. A predetermined bacterium is quantified by a bacterial species-specific primer; however, a pathogenic bacterium is not identified in the early stage of sepsis. Because of this, a bacterial species-specific primer cannot be used. Accordingly, unless a bacterial universal primer is used, an unidentified bacterium cannot be detected.
(§5) As mentioned above, E. coli DNA samples of three different concentrations and of a known bacterial number were used as quantification controls. Based on the data of three quantification controls different in concentration, a calibration curve was prepared. Based on bacterial DNA extracted from a patient specimen, the number of pathogenic bacterial cells was determined. Since the number of bacterial cells was obtained as an E. coli cell-number equivalent used as a quantification control, the number of bacterial cells in a specimen can be more easily, rapidly and accurately determined.
as §1

Test [4] relates to H. influenzae. In words: drug sensitivity test of the pathogenic bacterium from blood culture. To be noted: Case 2, isolate from blood specimen sampled before antibiotic treatment. In kind it is cell-based, Haemophilus influenzae. How it is done: as §1
Test [5] concerns Escherichia coli. In words: Case 1: pathogen count (nested PCR) and biomarkers in blood before/after antibiotic treatment. To be noted: for BT (body temperature): pretreatment 37.0; for IL-6: pretreatment 122; for CRP: pretreatment 185.9; for WBC: pretreatment 285.6; for Presepsin: pretreatment 1298; for Pathogen (Ave): pretreatment 1314. In kind it is in vivo, human (sepsis patient). How it is done: as §2, §3, §4, §5, §1
Case 1: • person, sepsis associated with urinary tract infection • blood culture/urine culture: Escherichia coli • antibiotic substance: meropenem (sensitive)

In test [6] the test system is Escherichia coli. In words: drug sensitivity test of the pathogenic bacterium from blood culture. In kind it is cell-based. To be noted: isolate from blood specimen sampled before antibiotic treatment. How it is done: as §1
According to Step 1 to Step 5 of Example 1, a pathogenic bacterium rapid identification/quantification test using sepsis patient's specimens (EDTA blood collection tube, 2 mL) was carried out. […] Blood was sampled before treatment with an antibiotic (pretreatment), and 24 hours (after 24 hrs.) and 72 hours (after 72 hrs.) after administration of the antibiotic. At the three points, a pathogenic bacterium rapid identification/quantification test was carried out together with measurement of body temperature, white blood cell count, CRP, presepsin and IL-6. […]

The subject of test [7] is Escherichia coli. In words: Case 4: pathogen identification/quantification and biomarkers in blood before/after antibiotic treatment. As to conditions: for BT (body temperature): pretreatment 37.0; for IL-6: pretreatment 122; for CRP: pretreatment 185.9; for WBC: pretreatment 285.6; for Presepsin: pretreatment 1298; for Pathogen (Ave): pretreatment 1314. In kind it is in vivo, human (sepsis patient). How it is done:
as §2, §3, §4, §5
For the reason, it is necessary to make a correction based on the operon copy number per bacterium species in order to more accurately determine bacterial number. Since identification and qualification of a pathogenic bacterium are carried out concurrently in Step 3 and Step 4, the number of pathogenic bacterial cells can be corrected based on 16S ribosomal RNA operon copy number of the bacterium identified to computationally obtain the correct number of bacterial cells.
as §1, with “Step 5” for “Step 4”, “rapid identification/quantification” for “rapid quantification”
Case 4: • person, sepsis associated with urinary tract infection • Tm mapping method: Escherichia coli (Dist. value=0.29) • blood culture/urine culture: Escherichia coli • antibiotics substance: meropenem (sensitive)

With `CO/N=C(\C(=O)N[C@@H]1C(=O)N2C(C(=O)[O-])=C(C[N+]3(C)CCCC3)CS[C@H]12)c1csc(N)n1` [cefepim], the drug sensitivity result in test [1] is “sensitive”. The drug sensitivity entry in test [2] is listed as “medium-level sensitivity”. In addition, in test [3] (Case 2, 24 h after antibiotic), the “BT (body temperature)” value was determined as 36.4 °C, the WBC is 418.1 × 100/μL, the CRP was found to be 240.0 mg/L and the Presepsin is 6202 ng/mL. Moreover, in test [3] (Case 2, 24 h after antibiotic), the IL-6 worked out at 7400 pg/mL and the “Pathogen (Ave)” value is given as 31453 cells/ml. Also, in test [3] (Case 2, 72 h after antibiotic), the “BT (body temperature)” value worked out at 36.3 °C, the WBC is on record as 348.7 × 100/μL, the CRP is 145.5 mg/L and the Presepsin is reported as 6060 ng/mL. Moreover, in test [3] (Case 2, 72 h after antibiotic), the IL-6 is 168 pg/mL and the “Pathogen (Ave)” value was found to be 2066 cells/ml. In addition, the drug sensitivity result in test [4] was “sensitive”.

In the case of `C[C@@H](O)[C@H]1C(=O)N2C(C(=O)O)=C(S[C@@H]3CN[C@H](C(=O)N(C)C)C3)[C@H](C)[C@H]12` [meropenem], in test [5] (Case 1, 24 h after antibiotic), the “BT (body temperature)” value turned out to be 37.9 °C, the IL-6 is listed as 85.8 pg/mL, the CRP is reported as 223.1 mg/L and the WBC is recorded as 301.4 × 100/μL. Further, in test [5] (Case 1, 24 h after antibiotic), the Presepsin worked out at 1729 ng/mL and the “Pathogen (Ave)” value is 248 cells/ml. Besides, in test [5] (Case 1, 72 h after antibiotic), the “BT (body temperature)” value was 37.2 °C, the IL-6 is 20.7 pg/mL, the CRP was determined as 86.4 mg/L and the WBC is given as 98.7 × 100/μL. For the same compound, in test [5] (Case 1, 72 h after antibiotic), the Presepsin is 1138 ng/mL and the “Pathogen (Ave)” value worked out at 0 cells/ml. Besides, the drug sensitivity entry in test [6] was “sensitive”. Further, in test [7] (Case 4, 24 h after antibiotic), the “BT (body temperature)” value came to 37.9 °C, the IL-6 was determined as 85.8 pg/mL, the CRP turned out to be 223.1 mg/L and the WBC is 301.4 × 100/μL. Also, in test [7] (Case 4, 24 h after antibiotic), the Presepsin is reported as 1729 ng/mL and the “Pathogen (Ave)” value is listed as 248 cells/ml. In test [7] (Case 4, 72 h after antibiotic), the “BT (body temperature)” value came out at 37.2 °C, the IL-6 amounted to 20.7 pg/mL, the CRP is listed as 86.4 mg/L and the WBC is given as 98.7 × 100/μL. Besides, in test [7] (Case 4, 72 h after antibiotic), the Presepsin is listed as 1138 ng/mL and the “Pathogen (Ave)” value came to 0 cells/ml.
